Assays:
murine hepatoma H22 [1] = assay: Curative effect test against murine hepatoma H22 by gavaging a thixotropic oil suspension of triacontanol; format: in vivo, mice
Description: (§1) Experiment method: […] of the tumor models of murine hepatoma H22, intestinal cancer C26 and Lewis lung cancer by hypodermic inoculating in the murine in vivo
(§2) A cancer cell suspension is prepared from the tumor source by homogenate technique, and then is inoculated subcutaneously under the armpit. After 24 hours, medication is administrated according to a predesigned scheme, and finally, an inhibition rate statistic against the tumor is obtained by comparing with a negative control group.

[2] = Effect to the thymus index and spleen index of murine by gavaging a triacontanol oil agent; format: in vivo; details: tumor-bearing mice
murine hepatoma H22 [3] = assay: Curative effect test against murine hepatoma H22 (inoculated under the armpit) by gavaging a triacontanol oil agent; format: in vivo, mice
Description: as §1, §2

intestinal cancer C26 = assay: Curative effect test against murine intestinal cancer C26 (hypodermically inoculated) by gavaging a 352B oil agent; format: in vivo, mice; details: 7 mg/kg/d
Description: as §1, §2

Lewis lung cancer = assay: Curative effect test against murine Lewis lung cancer (hypodermically inoculated) by intravenous administration of a triacontanol emulsion; format: in vivo, mice; details: 7 mg/kg/d
Description: as §1, §2

[4] = ipx2, vs negative control group
[5] = 100 mg/kg (middle dosage), gavage
[6] = 150 mg/kg (high dosage), gavage

## N.N.[Cl][Pt][Cl] [DDP]
Murine hepatoma H22 [1]; 7 mg/kg/d, igx2
  Weight of the animal (g) at last: 21.4/25.4 g
  Weight of the tumor (g) X ± SD: 1.269 ± 0.13 g
Murine hepatoma H22 [1]; 7 mg/kg/d, igx2, vs negative control group
  Inhibition rate (%): 91.0%
[2]; 0.001 mg/kg
  Spleen index (mg/10 g body weight): 46 ± 8.18 mg/10 g body weight
  Thymus index (mg/10 g body weight): 30.7 ± 8.06 mg/10 g body weight
  Weight of spleen: 88.90 ± 27.79 mg
  Weight of thymus: 59.61 ± 22.45 mg
Murine hepatoma H22 [3]; 0.001 mg/kg
  Weight of the tumor: 0.31 ± 0.19 g
Murine hepatoma H22 [3]; 0.001 mg/kg, compared with the NS control group
  Inhibition rate (%): 79.76%
Intestinal cancer C26; ipx2
  Weight of the animal (g) at last: 19.1/24.1 g
  Weight of the tumor (g) X ± SD: 0.346 ± 0.13 g
Intestinal cancer C26; [4]
  Inhibition rate (%): 86.99%
Lewis lung cancer; ipx2
  Weight of the animal (g) at last: 19.2/20.9 g
  Weight of the tumor (g) X ± SD: 0.278 ± 0.14 g
Lewis lung cancer; [4]
  Inhibition rate (%): 89.00%

## CCCCCCCCCCCCCCCCCCCCCCCCCCCCCCO [352B, triacontanol]
Murine hepatoma H22 [1]; summary of the above tests (H22, Lewis lung cancer, C26)
  antitumor effect (summary in words): prominent antitumor effect
[2]; 50 mg/kg (low dosage), gavage
  Spleen index (mg/10 g body weight): 67.1 ± 13.7 mg/10 g body weight
  Thymus index (mg/10 g body weight): 45 ± 6.72 mg/10 g body weight
  Weight of spleen: 153.52 ± 35.62 mg
  Weight of thymus: 102.14 ± 15.90 mg
[2]; [5]
  Spleen index (mg/10 g body weight): 62.1 ± 17.5 mg/10 g body weight
  Thymus index (mg/10 g body weight): 38.7 ± 8.08 mg/10 g body weight
  Weight of spleen: 139.98 ± 41.62 mg
  Weight of thymus: 86.87 ± 16.44 mg
[2]; [6]
  Spleen index (mg/10 g body weight): 65.7 ± 12.3 mg/10 g body weight
  Thymus index (mg/10 g body weight): 37.7 ± 6.73 mg/10 g body weight
  Weight of spleen: 151.26 ± 32.16 mg
  Weight of thymus: 86.86 ± 16.14 mg
[2]; summary in words
  effect to the important immune organ (thymus and spleen): hasn't obvious effect to the important immune organ
Murine hepatoma H22 [3]; 50 mg/kg (low dosage), gavage
  Weight (g) After administration: 23.51 ± 1.99 g
  Weight of the tumor: 0.72 ± 0.38 g
Murine hepatoma H22 [3]; 50 mg/kg (low dosage), gavage, compared with the menstruum control group
  Inhibition rate (%): 48.13%
Murine hepatoma H22 [3]; [5]
  Weight (g) After administration: 23.20 ± 2.86 g
  Weight of the tumor: 0.57 ± 0.28 g
Murine hepatoma H22 [3]; 100 mg/kg (middle dosage), gavage, compared with the menstruum control group
  Inhibition rate (%): 58.95%
Murine hepatoma H22 [3]; [6]
  Weight (g) After administration: 23.52 ± 2.36 g
  Weight of the tumor: 0.49 ± 0.25 g
Murine hepatoma H22 [3]; 150 mg/kg (high dosage), gavage, compared with the menstruum control group
  Inhibition rate (%): 64.59%

Reference: patent US7863337B2, “Use of triacontanol in preparation of medicaments for treatment of cancers” (priority 2006, dated 2011)
